“And” between values parts separate entries of the source, which are not always exact repeats. Equal entries are not always repeated. Toxic doses and inconclusive results are not listed. Rule for the calls: active = survival T/C of 150% or more; inactive = T/C below 125% in these data.
Tested on: CD2F1 mice, L1210 leukemia ip, survival T/C
Experiment: NCI In Vivo Anticancer Drug Screen. Data for tumor model L1210 Leukemia (intraperitoneal) in CD2F1 (CDF1) mice
Settings: higher = longer survival
Procedure, shortened: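 Activity against a transplanted murine tumor was judged by comparing the compound group with a vehicle group. The outcome in the treated animals was divided by that in the controls.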

[1] = endpoint: mean survival time, dose: 100.0 mg/kg/injection, schedule: Q01DX009 (ip), vehicle: saline with Tween-80
[2] = endpoint: mean survival time, dose: 200.0 mg/kg/injection, schedule: Q01DX009 (ip), vehicle: saline with Tween-80
[3] = endpoint: mean survival time, dose: 400.0 mg/kg/injection, schedule: Q01DX009 (ip), vehicle: saline with Tween-80
[4] = endpoint: mean survival time, dose: 100.0 mg/kg/injection, schedule: Q04DX003 (ip), vehicle: saline with Tween-80
[5] = endpoint: mean survival time, dose: 200.0 mg/kg/injection, schedule: Q04DX003 (ip), vehicle: saline with Tween-80
[6] = endpoint: mean survival time, dose: 400.0 mg/kg/injection, schedule: Q04DX003 (ip), vehicle: saline with Tween-80

Measured: T/C

CCCCCc1ccc(C#N)cc1
inactive: endpoint: mean survival time, dose: 50.0 mg/kg/injection, schedule: Q01DX001 (ip), vehicle: saline 100 % of control | endpoint: mean survival time, dose: 100.0 mg/kg/injection, schedule: Q01DX001 (ip), vehicle: saline 97 % of control | endpoint: mean survival time, dose: 200.0 mg/kg/injection, schedule: Q01DX001 (ip), vehicle: saline 89 % of control | endpoint: mean survival time, dose: 400.0 mg/kg/injection, schedule: Q01DX001 (ip), vehicle: saline 93 % of control

O=C(Nc1ccccc1)Nc1ccccc1F
inactive: [1] 95 % of control | [2] 113 % of control | [3] 98 % of control

O=C1C(c2ccccc2)=C(c2ccccc2)CC(c2ccccc2)C1c1ccccc1 (centres undefined)
inactive: [4] 97 % of control | [5] 97 % of control | [6] 95 % of control

COc1ccc(OC)c(/C=C/c2ccc3ccccc3n2)c1
inactive: [1] 110 % of control | [4] 104 % of control | [2] 98 % of control | [5] 104 % of control | [3] 106 % of control | [6] 108 % of control

CC(C)(C)OC(=O)N1CCCC1C(=O)O (centres undefined)
inactive: [4] 96 % of control | [5] 101 % of control | [6] 110 % of control

Cc1ccc(C#CP(C#Cc2ccc(C)cc2)C#Cc2ccc(C)cc2)cc1
inactive: endpoint: mean survival time, dose: 1.56 mg/kg/injection, schedule: Q01DX009 (ip), vehicle: saline with Tween-80 92 % of control | endpoint: mean survival time, dose: 3.12 mg/kg/injection, schedule: Q01DX009 (ip), vehicle: saline with Tween-80 96 % of control | endpoint: mean survival time, dose: 6.25 mg/kg/injection, schedule: Q01DX009 (ip), vehicle: saline 96 % of control | endpoint: mean survival time, dose: 25.0 mg/kg/injection, schedule: Q01DX009 (ip), vehicle: saline 96 % of control

CNC(=O)n1ncnc1N
inactive: endpoint: mean survival time, dose: 12.5 mg/kg/injection, schedule: Q01DX001 (ip), vehicle: carboxymethylcellulose (CMC) 95 % of control | endpoint: mean survival time, dose: 25.0 mg/kg/injection, schedule: Q01DX001 (ip), vehicle: carboxymethylcellulose (CMC) 100 % of control | endpoint: mean survival time, dose: 50.0 mg/kg/injection, schedule: Q01DX001 (ip), vehicle: carboxymethylcellulose (CMC) 95 % of control | endpoint: mean survival time, dose: 100.0 mg/kg/injection, schedule: Q01DX001 (ip), vehicle: carboxymethylcellulose (CMC) 91 % of control | endpoint: mean survival time, dose: 200.0 mg/kg/injection, schedule: Q01DX001 (ip), vehicle: carboxymethylcellulose (CMC) 93 % of control

C1CC1C(=NN=C(C1CC1)C1CC1)C1CC1
inactive: endpoint: mean survival time, dose: 25.0 mg/kg/injection, schedule: Q01DX009 (ip), vehicle: saline with Tween-80 97 % of control | endpoint: mean survival time, dose: 50.0 mg/kg/injection, schedule: Q01DX009 (ip), vehicle: saline with Tween-80 101 % of control | [4] 86 % of control

O=C1NN=C(C2CCCCC2)C12CCCCC2
inactive: [4] 96 % of control | [5] 100 % of control | [6] 94 % of control

CCc1nc(N)nc(N)c1-c1ccc(Cl)c(N=[N+]=[N-])c1
inactive: endpoint: median survival time, dose: 12.5 mg/kg/injection, schedule: Q01DX009 (ip), vehicle: distilled water + Tween-80 100 % of control | endpoint: median survival time, dose: 25.0 mg/kg/injection, schedule: Q01DX009 (ip), vehicle: distilled water + Tween-80 101 % of control and 102 % of control | endpoint: median survival time, dose: 50.0 mg/kg/injection, schedule: Q01DX009 (ip), vehicle: distilled water + Tween-80 102 % of control and 107 % of control | endpoint: median survival time, dose: 100.0 mg/kg/injection, schedule: Q01DX009 (ip), vehicle: distilled water + Tween-80 113 % of control (2×) and 96 % of control

NNC(=O)c1ccc([N+](=O)[O-])o1
inactive: endpoint: mean survival time, dose: 37.5 mg/kg/injection, schedule: Q01DX009 (ip), vehicle: saline with Tween-80 97 % of control | [4] 110 % of control

CCOC(=O)C(O)(CC)CCC(C)C (centres undefined)
inactive: [4] 105 % of control | [5] 86 % of control

CC1(c2ccccc2)NC(=O)NC1=O (centres undefined)
inactive: endpoint: mean survival time, dose: 100.0 mg/kg/injection, schedule: Q01DX009 (ip), vehicle: other 98 % of control | [4] 94 % of control | endpoint: mean survival time, dose: 200.0 mg/kg/injection, schedule: Q01DX009 (ip), vehicle: other 97 % of control | [5] 97 % of control | [6] 91 % of control

OCC1OC(n2ccc3c2ncn2ncnc32)C(O)C1O (centres undefined)
inactive: endpoint: mean survival time, dose: 6.25 mg/kg/injection, schedule: Q01DX005 (ip), vehicle: water 114 % of control | endpoint: mean survival time, dose: 12.5 mg/kg/injection, schedule: Q01DX005 (ip), vehicle: water 114 % of control | endpoint: mean survival time, dose: 25.0 mg/kg/injection, schedule: Q01DX005 (ip), vehicle: water 117 % of control | endpoint: mean survival time, dose: 50.0 mg/kg/injection, schedule: Q01DX005 (ip), vehicle: water 88 % of control and 106 % of control

CCCN(CCC)C(=O)c1cccnc1
inactive: endpoint: mean survival time, dose: 100.0 mg/kg/injection, schedule: Q01DX009 (ip), vehicle: saline 92 % of control | endpoint: mean survival time, dose: 200.0 mg/kg/injection, schedule: Q01DX009 (ip), vehicle: saline 92 % of control | endpoint: mean survival time, dose: 400.0 mg/kg/injection, schedule: Q01DX009 (ip), vehicle: saline 97 % of control

OCC1OC(n2cnc3c2NC=NC[C@H]3O)CC1O (some centres undefined)
inactive: endpoint: mean survival time, dose: 0.13 mg/kg/injection, schedule: Q01DX005 (ip), vehicle: water 93 % of control | endpoint: mean survival time, dose: 0.13 mg/kg/injection, schedule: Q01DX009 (ip), vehicle: water 95 % of control | endpoint: mean survival time, dose: 0.2 mg/kg/injection, schedule: Q03HX024 (ip), vehicle: saline with Tween-80 102 % of control | endpoint: mean survival time, dose: 0.25 mg/kg/injection, schedule: Q01DX005 (ip), vehicle: water 108 % of control | endpoint: mean survival time, dose: 0.25 mg/kg/injection, schedule: Q01DX009 (ip), vehicle: water 101 % of control | endpoint: mean survival time, dose: 0.25 mg/kg/injection, schedule: Q04DX002 (ip), vehicle: water 94 % of control | endpoint: mean survival time, dose: 0.25 mg/kg/injection, schedule: Q04DX003 (ip), vehicle: water 99 % of control | endpoint: mean survival time, dose: 0.3 mg/kg/injection, schedule: Q03HX024 (ip), vehicle: saline with Tween-80 101 % of control | endpoint: mean survival time, dose: 0.4 mg/kg/injection, schedule: Q03HX024 (ip), vehicle: saline with Tween-80 115 % of control and 103 % of control | endpoint: mean survival time, dose: 0.5 mg/kg/injection, schedule: Q03HX024 (ip), vehicle: saline with Tween-80 116 % of control | endpoint: mean survival time, dose: 0.5 mg/kg/injection, schedule: Q04DX002 (ip), vehicle: water 101 % of control | endpoint: mean survival time, dose: 0.5 mg/kg/injection, schedule: Q04DX003 (ip), vehicle: water 96 % of control | endpoint: mean survival time, dose: 0.6 mg/kg/injection, schedule: Q03HX024 (ip), vehicle: saline with Tween-80 110 % of control | endpoint: mean survival time, dose: 0.75 mg/kg/injection, schedule: Q03HX024 (ip), vehicle: saline with Tween-80 111 % of control | endpoint: median survival time, dose: 0.1 mg/kg/injection, schedule: Q01DX009 (ip), vehicle: saline 101 % of control | endpoint: median survival time, dose: 0.13 mg/kg/injection, schedule: Q01DX009 (ip), vehicle: saline 102 % of control | endpoint: median survival time, dose: 0.21 mg/kg/injection, schedule: Q01DX009 (ip), vehicle: saline 113 % of control | endpoint: median survival time, dose: 0.25 mg/kg/injection, schedule: Q01DX009 (ip), vehicle: saline 104 % of control and 108 % of control | endpoint: median survival time, dose: 0.25 mg/kg/injection, schedule: Q03HX012 (ip), vehicle: saline 112 % of control | endpoint: median survival time, dose: 0.3 mg/kg/injection, schedule: Q01DX009 (ip), vehicle: saline 104 % of control | endpoint: median survival time, dose: 0.5 mg/kg/injection, schedule: Q01DX009 (ip), vehicle: saline 104 % of control and 110 % of control | endpoint: median survival time, dose: 0.5 mg/kg/injection, schedule: Q03HX012 (ip), vehicle: saline 113 % of control | endpoint: median survival time, dose: 1.0 mg/kg/injection, schedule: Q01DX009 (ip), vehicle: saline 108 % of control | endpoint: median survival time, dose: 2.0 mg/kg/injection, schedule: Q01DX009 (ip), vehicle: saline 102 % of control | endpoint: median survival time, dose: 3.0 mg/kg/injection, schedule: Q01DX005 (ip), vehicle: saline 95 % of control | endpoint: median survival time, dose: 3.0 mg/kg/injection, schedule: Q01DX009 (ip), vehicle: saline 109 % of control | endpoint: median survival time, dose: 4.0 mg/kg/injection, schedule: Q01DX005 (ip), vehicle: saline 100 % of control | endpoint: median survival time, dose: 5.0 mg/kg/injection, schedule: Q01DX005 (ip), vehicle: saline 97 % of control | endpoint: median survival time, dose: 6.0 mg/kg/injection, schedule: Q01DX005 (ip), vehicle: saline 97 % of control | endpoint: median survival time, dose: 7.0 mg/kg/injection, schedule: Q01DX005 (ip), vehicle: saline 104 % of control | endpoint: median survival time, dose: 10.0 mg/kg/injection, schedule: Q01DX009 (ip), vehicle: saline 109 % of control

CC(=O)Nc1ccc(/C=N\NC(=O)C2CC2)cc1
inactive: [4] 93 % of control | [5] 96 % of control | [6] 93 % of control

CN(C(=O)c1cccnc1)c1ccccc1
inactive: [1] 98 % of control | [2] 101 % of control | [3] 103 % of control

Cc1cc(N2C(=O)CSC2=S)ccc1Br
inactive: endpoint: mean survival time, dose: 100.0 mg/kg/injection, schedule: Q01DX001 (ip), vehicle: saline with Tween-80 95 % of control | endpoint: mean survival time, dose: 200.0 mg/kg/injection, schedule: Q01DX001 (ip), vehicle: saline with Tween-80 97 % of control | endpoint: mean survival time, dose: 400.0 mg/kg/injection, schedule: Q01DX001 (ip), vehicle: saline with Tween-80 100 % of control

Reference: PubChem BioAssay AID256 (DTP/NCI, 2004)
